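These data come from cells grown in 96-well plates and exposed to compound for 48 hours at five concentrations. GI50 = concentration required for 50% inhibition of growth. TGI: concentration producing complete growth inhibition.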
Legend:
Test in all cases: inhibition of tumour cell growth, NCI panel, 48 h
786-0 renal = test system: 786-0 renal
A498 renal = test system: A498 renal
A549 NSCLC = test system: A549 NSCLC
ACHN renal = test system: ACHN renal
BT-549 breast = test system: BT-549 breast
CAKI-1 renal = test system: CAKI-1 renal
CCRF-CEM leukemia = test system: CCRF-CEM leukemia
COLO 205 colon = test system: COLO 205 colon
DU-145 prostate = test system: DU-145 prostate
EKVX NSCLC = test system: EKVX NSCLC
HCC-2998 colon = test system: HCC-2998 colon
HCT-116 colon = test system: HCT-116 colon
HCT-15 colon = test system: HCT-15 colon
HL-60(TB) leukemia = test system: HL-60(TB) leukemia
HOP-62 NSCLC = test system: HOP-62 NSCLC
HOP-92 NSCLC = test system: HOP-92 NSCLC
HS 578T breast = test system: HS 578T breast
HT29 colon = test system: HT29 colon
IGROV1 ovarian = test system: IGROV1 ovarian
K-562 leukemia = test system: K-562 leukemia
KM12 colon = test system: KM12 colon
LOX IMVI melanoma = test system: LOX IMVI melanoma
M14 melanoma = test system: M14 melanoma
MALME-3M melanoma = test system: MALME-3M melanoma
MCF7 breast = test system: MCF7 breast
MDA-MB-231 breast = test system: MDA-MB-231 breast
MDA-MB-435 = test system: MDA-MB-435
MOLT-4 leukemia = test system: MOLT-4 leukemia
NCI-H226 lung = test system: NCI-H226 lung
NCI-H23 lung = test system: NCI-H23 lung
NCI-H460 lung = test system: NCI-H460 lung
NCI-H522 lung = test system: NCI-H522 lung
NCI/ADR-RES ovarian = test system: NCI/ADR-RES ovarian
OVCAR-3 ovarian = test system: OVCAR-3 ovarian
OVCAR-4 ovarian = test system: OVCAR-4 ovarian
OVCAR-5 ovarian = test system: OVCAR-5 ovarian
OVCAR-8 ovarian = test system: OVCAR-8 ovarian
PC-3 prostate = test system: PC-3 prostate
RPMI-8226 leukemia = test system: RPMI-8226 leukemia
RXF 393 renal = test system: RXF 393 renal
SF-268 CNS = test system: SF-268 CNS
SF-295 CNS = test system: SF-295 CNS
SK-MEL-28 melanoma = test system: SK-MEL-28 melanoma
SK-MEL-5 melanoma = test system: SK-MEL-5 melanoma
SK-OV-3 ovarian = test system: SK-OV-3 ovarian
SN12C renal = test system: SN12C renal
SNB-19 CNS = test system: SNB-19 CNS
SNB-75 CNS = test system: SNB-75 CNS
SR leukemia = test system: SR leukemia
SW-620 colon = test system: SW-620 colon
T-47D breast = test system: T-47D breast
TK-10 renal = test system: TK-10 renal
U251 CNS = test system: U251 CNS
UACC-257 melanoma = test system: UACC-257 melanoma
UO-31 renal = test system: UO-31 renal

## Cc1cc2nc(C(Cl)Cl)nc(-c3ccc(Cl)cc3)n2n1
786-0 renal
  GI50: 4930 nM
  TGI: > 100000 nM
A498 renal
  GI50: 1090 nM
  TGI: 2650 nM
A549 NSCLC
  GI50: 448 nM
  TGI: 3280 nM
ACHN renal
  GI50: 386 nM
  TGI: 2240 nM
BT-549 breast
  GI50: 2750 nM
  TGI: > 100000 nM
CAKI-1 renal
  GI50: 798 nM
  TGI: 4110 nM
CCRF-CEM leukemia
  GI50: 2830 nM
  TGI: > 100000 nM
COLO 205 colon
  GI50: 603 nM
  TGI: 2670 nM
DU-145 prostate
  GI50: 268 nM
  TGI: 827 nM
EKVX NSCLC
  GI50: 1600 nM
  TGI: 4300 nM
HCC-2998 colon
  GI50: 788 nM
  TGI: 2330 nM
HCT-116 colon
  GI50: 566 nM
  TGI: > 33100 nM
HCT-15 colon
  GI50: 745 nM
  TGI: 3470 nM
HL-60(TB) leukemia
  GI50: 1110 nM
HOP-62 NSCLC
  GI50: 864 nM
  TGI: 4270 nM
HOP-92 NSCLC
  GI50: 1530 nM
  TGI: 4660 nM
HS 578T breast
  GI50: 1340 nM
  TGI: 4600 nM
HT29 colon
  GI50: 360 nM
  TGI: 3990 nM
IGROV1 ovarian
  GI50: 1380 nM
  TGI: 5280 nM
K-562 leukemia
  GI50: 1390 nM
  TGI: > 28500 nM
KM12 colon
  GI50: 414 nM
  TGI: 1740 nM
LOX IMVI melanoma
  GI50: 3950 nM
  TGI: > 100000 nM
M14 melanoma
  GI50: 1310 nM
  TGI: 3250 nM
MALME-3M melanoma
  GI50: 1480 nM
  TGI: 2990 nM
MCF7 breast
  GI50: 465 nM
  TGI: 5100 nM
MDA-MB-231 breast
  GI50: 1230 nM
  TGI: 4210 nM
MDA-MB-435
  GI50: 1260 nM
  TGI: 2790 nM
MOLT-4 leukemia
  GI50: 1010 nM
  TGI: > 100000 nM
NCI-H226 lung
  GI50: 3280 nM
  TGI: > 100000 nM
NCI-H23 lung
  GI50: 479 nM
  TGI: 2420 nM
NCI-H460 lung
  GI50: 304 nM
  TGI: 1090 nM
NCI-H522 lung
  GI50: 1560 nM
  TGI: 5230 nM
NCI/ADR-RES ovarian
  GI50: 682 nM
  TGI: 3890 nM
OVCAR-3 ovarian
  GI50: 491 nM
  TGI: 1870 nM
OVCAR-4 ovarian
  GI50: 1060 nM
  TGI: 4380 nM
OVCAR-5 ovarian
  GI50: 1850 nM
  TGI: 5560 nM
OVCAR-8 ovarian
  GI50: 964 nM
  TGI: > 100000 nM
PC-3 prostate
  GI50: 1330 nM
  TGI: 4160 nM
RPMI-8226 leukemia
  GI50: 1360 nM
  TGI: 6450 nM
RXF 393 renal
  GI50: 764 nM
  TGI: 2270 nM
SF-268 CNS
  GI50: 1340 nM
  TGI: 4470 nM
SF-295 CNS
  GI50: 1300 nM
  TGI: 4750 nM
SK-MEL-28 melanoma
  GI50: 1630 nM
  TGI: 3380 nM
SK-MEL-5 melanoma
  GI50: 1680 nM
  TGI: 3480 nM
SK-OV-3 ovarian
  GI50: 2110 nM
  TGI: 7000 nM
SN12C renal
  GI50: 2640 nM
  TGI: > 100000 nM
SNB-19 CNS
  GI50: 1050 nM
  TGI: 4640 nM
SNB-75 CNS
  GI50: 1100 nM
  TGI: 4340 nM
SR leukemia
  GI50: 372 nM
  TGI: > 21100 nM
SW-620 colon
  GI50: 433 nM
  TGI: 2930 nM
T-47D breast
  GI50: 2190 nM
  TGI: > 26300 nM
TK-10 renal
  GI50: 1850 nM
  TGI: 5210 nM
U251 CNS
  GI50: 509 nM
  TGI: 3700 nM
UACC-257 melanoma
  GI50: 2300 nM
  TGI: 5490 nM
UO-31 renal
  GI50: 1420 nM
  TGI: 3920 nM
